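In this assay, cells in 96-well plates receive the compound at five concentrations for 48 hours. Endpoints are linearly interpolated between the surrounding concentrations. GI50 marks 50% less growth.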 The source made the active and inactive calls. Rule as the data show it: active = GI50 up to about 1.1 µM and inactive = higher.
What was measured:
Assay in all cases: NCI tumour cell line growth inhibition, 48 h
[1] = tested on: A549
[2] = tested on: COLO 205
[3] = tested on: HCT-116
[4] = tested on: HOP-62
[5] = tested on: HOP-92
[6] = tested on: HT-29
[7] = tested on: K562
[8] = tested on: M14
[9] = tested on: MOLT-4
[10] = tested on: NCI-H460
[11] = tested on: NCI-H522
[12] = tested on: OVCAR-3
[13] = tested on: OVCAR-5
[14] = tested on: SF-295
[15] = tested on: SK-MEL-28
[16] = tested on: SK-MEL-2
[17] = tested on: SK-OV-3
[18] = tested on: SW-620
[19] = tested on: UACC-257
[20] = tested on: MCF7

| SMILES | GI50 [1] | GI50 [2] | GI50 [3] | GI50 [4] | GI50 [5] | GI50 [6] | GI50 [7] | GI50 [8] | GI50 [9] | GI50 [10] | GI50 [11] | GI50 [12] | GI50 [13] | GI50 [14] | GI50 [15] | GI50 [16] | GI50 [17] | GI50 [18] | GI50 [19] | GI50 [20] |
| --- | --- | --- | --- | --- | --- | --- | --- | --- | --- | --- | --- | --- | --- | --- | --- | --- | --- | --- | --- | --- |
| CCC1(N=[N+]=[N-])C(=O)Nc2cc(C)ccc2C1=O (configuration not stated) | > 100 µM (inactive) | 69.3 µM (inactive) | > 100 µM (inactive) | > 100 µM (inactive) | 46.1 µM (inactive) | 89.9 µM (inactive) | 47.5 µM (inactive) | 76.7 µM (inactive) | 39.4 µM (inactive) | > 100 µM (inactive) | 4.25 µM (inactive) | 45.6 µM (inactive) | > 100 µM (inactive) | > 100 µM (inactive) | > 100 µM (inactive) | > 100 µM (inactive) | > 100 µM (inactive) | > 100 µM (inactive) | 96.4 µM (inactive) | – |
| CCCN1CN(C(C(=O)N[C@@H]2C(=O)N3C(C(=O)O)=C(C)CSC23)c2ccc(O)cc2)CSC1=S (some centres not stated) | > 100 µM (inactive) | 55.6 µM (inactive) | > 100 µM (inactive) | > 100 µM (inactive) | > 100 µM (inactive) | > 100 µM (inactive) | 80 µM (inactive) | > 100 µM (inactive) | 57.3 µM (inactive) | 63.1 µM (inactive) | 23.6 µM (inactive) | 45.5 µM (inactive) | > 100 µM (inactive) | > 100 µM (inactive) | > 100 µM (inactive) | > 100 µM (inactive) | > 100 µM (inactive) | 14.2 µM (inactive) | > 100 µM (inactive) | – |
| CN1CCN(C)C1c1cccc(C2N(C)CCN2C)c1 | – | > 100 µM (inactive) | > 100 µM (inactive) | > 100 µM (inactive) | > 100 µM (inactive) | > 100 µM (inactive) | 46.2 µM (inactive) | > 100 µM (inactive) | > 100 µM (inactive) | > 100 µM (inactive) | > 100 µM (inactive) | > 100 µM (inactive) | > 100 µM (inactive) | > 100 µM (inactive) | > 100 µM (inactive) | > 100 µM (inactive) | > 100 µM (inactive) | – | – | – |
| C#CC1(O)CCC2[C@@H]3CCc4cc(Oc5nc(F)nc(-c6c7ccccc7cn6C)n5)ccc4C3CC[C@@]21C (some centres not stated) | > 100 µM (inactive) | > 78.9 µM (inactive) | > 100 µM (inactive) | > 100 µM (inactive) | > 100 µM (inactive) | > 100 µM (inactive) | > 67 µM (inactive) | > 100 µM (inactive) | 44.9 µM (inactive) | > 79.3 µM (inactive) | 89.3 µM (inactive) | > 100 µM (inactive) | > 100 µM (inactive) | > 100 µM (inactive) | > 100 µM (inactive) | > 100 µM (inactive) | > 100 µM (inactive) | 55.5 µM (inactive) | > 100 µM (inactive) | – |
| COc1ccc2nc(NC(=O)C(=O)C(C#N)c3ccc(CC#N)cc3)sc2c1 (configuration not stated) | > 100 µM (inactive) | > 100 µM (inactive) | > 100 µM (inactive) | > 100 µM (inactive) | 96.8 µM (inactive) | > 100 µM (inactive) | > 100 µM (inactive) | > 100 µM (inactive) | > 100 µM (inactive) | > 100 µM (inactive) | > 100 µM (inactive) | > 100 µM (inactive) | > 100 µM (inactive) | > 100 µM (inactive) | > 100 µM (inactive) | > 100 µM (inactive) | > 100 µM (inactive) | > 100 µM (inactive) | > 100 µM (inactive) | – |
| CS(=O)(=O)OCCN(CCOS(C)(=O)=O)c1ccc(/C=N/N=c2/nc[nH]c3nc[nH]c23)cc1 | 26.2 µM (inactive) | 17.2 µM (inactive) | 17.3 µM (inactive) | 28.2 µM (inactive) | 16.9 µM (inactive) | 17.8 µM (inactive) | 24.9 µM (inactive) | 17.6 µM (inactive) | 4.84 µM (inactive) | 7.76 µM (inactive) | 12.3 µM (inactive) | 13.4 µM (inactive) | 20.6 µM (inactive) | 14.9 µM (inactive) | 19.3 µM (inactive) | 20.4 µM (inactive) | 26.2 µM (inactive) | 16 µM (inactive) | 19.8 µM (inactive) | – |
| CNC(=O)NCCCCC(NC(=O)OCc1ccccc1)C(=O)OCc1ccccc1 (configuration not stated) | 31.6 µM (inactive) | 17.7 µM (inactive) | 51.6 µM (inactive) | 8.81 µM (inactive) | 36 µM (inactive) | 71.4 µM (inactive) | 44.3 µM (inactive) | 16.5 µM (inactive) | 20.8 µM (inactive) | 31.7 µM (inactive) | 14.5 µM (inactive) | 16.1 µM (inactive) | 46 µM (inactive) | 20.6 µM (inactive) | 21.1 µM (inactive) | 22 µM (inactive) | > 100 µM (inactive) | > 100 µM (inactive) | 18.6 µM (inactive) | – |
| NC1=Nc2ccccc2Sc2ccccc21 | > 100 µM (inactive) | > 100 µM (inactive) | 35.9 µM (inactive) | > 100 µM (inactive) | 32.7 µM (inactive) | > 100 µM (inactive) | 82.6 µM (inactive) | > 100 µM (inactive) | > 100 µM (inactive) | > 100 µM (inactive) | 60.3 µM (inactive) | > 100 µM (inactive) | > 100 µM (inactive) | > 100 µM (inactive) | > 100 µM (inactive) | > 100 µM (inactive) | > 100 µM (inactive) | > 100 µM (inactive) | > 100 µM (inactive) | – |
| Cn1c(=O)c2c(nc3[nH]c(=O)c(Br)cn32)n(C)c1=O | > 100 µM (inactive) | > 100 µM (inactive) | > 100 µM (inactive) | > 100 µM (inactive) | > 100 µM (inactive) | > 100 µM (inactive) | > 100 µM (inactive) | > 100 µM (inactive) | > 100 µM (inactive) | > 100 µM (inactive) | > 100 µM (inactive) | > 100 µM (inactive) | > 100 µM (inactive) | > 100 µM (inactive) | > 100 µM (inactive) | > 100 µM (inactive) | > 100 µM (inactive) | > 100 µM (inactive) | > 100 µM (inactive) | – |
| CC(=O)N1C(=O)/C(=C\C(=O)c2ccc([N+](=O)[O-])cc2)c2ccccc21 | > 100 µM (inactive) | 18.8 µM (inactive) | 18 µM (inactive) | 36.4 µM (inactive) | – | 17.8 µM (inactive) | 9.18 µM (inactive) | 31 µM (inactive) | 19.5 µM (inactive) | 20.1 µM (inactive) | 15.7 µM (inactive) | 16.7 µM (inactive) | 54.2 µM (inactive) | > 100 µM (inactive) | – | > 100 µM (inactive) | > 100 µM (inactive) | – | 19 µM (inactive) | 21.3 µM (inactive) |
| O=C(C#Cc1ccccc1)NC/C=C/c1ccccc1 | 36 µM (inactive) | 83.4 µM (inactive) | 41.7 µM (inactive) | 22.8 µM (inactive) | 25.4 µM (inactive) | 50.2 µM (inactive) | 33.6 µM (inactive) | 55.3 µM (inactive) | 33.6 µM (inactive) | 47.9 µM (inactive) | 29.7 µM (inactive) | 33 µM (inactive) | > 100 µM (inactive) | 38.6 µM (inactive) | 76.4 µM (inactive) | 35.5 µM (inactive) | 22.2 µM (inactive) | 36.9 µM (inactive) | > 100 µM (inactive) | – |
| O=C(CCc1nnc2s/c(=C\c3ccc4c(c3)OCO4)c(=O)n12)Nc1cc(Cl)ccc1Cl | > 100 µM (inactive) | > 74.1 µM (inactive) | > 50.9 µM (inactive) | > 100 µM (inactive) | > 100 µM (inactive) | > 100 µM (inactive) | > 100 µM (inactive) | > 100 µM (inactive) | > 100 µM (inactive) | > 100 µM (inactive) | > 100 µM (inactive) | > 100 µM (inactive) | > 100 µM (inactive) | > 100 µM (inactive) | > 100 µM (inactive) | > 100 µM (inactive) | > 100 µM (inactive) | > 43.6 µM (inactive) | > 100 µM (inactive) | – |
| O=C1C=CC(=O)c2c(NCC3CC3)ccc(NCC3CC3)c21 | 47.8 µM (inactive) | 19.7 µM (inactive) | 37.8 µM (inactive) | > 100 µM (inactive) | – | 32.2 µM (inactive) | 22.5 µM (inactive) | 18.5 µM (inactive) | 11.8 µM (inactive) | 60.8 µM (inactive) | 1.05 µM (active) | 26.7 µM (inactive) | 59 µM (inactive) | 33.7 µM (inactive) | 28.6 µM (inactive) | 50.4 µM (inactive) | – | 34.5 µM (inactive) | 29.3 µM (inactive) | 24.7 µM (inactive) |
| Nc1nc[n+](Cc2ccccc2CCO)c2[nH]cnc12 | > 100 µM (inactive) | > 100 µM (inactive) | – | > 100 µM (inactive) | > 100 µM (inactive) | > 100 µM (inactive) | > 100 µM (inactive) | > 100 µM (inactive) | > 100 µM (inactive) | > 100 µM (inactive) | > 100 µM (inactive) | > 100 µM (inactive) | > 100 µM (inactive) | > 100 µM (inactive) | > 100 µM (inactive) | > 100 µM (inactive) | > 100 µM (inactive) | > 100 µM (inactive) | > 100 µM (inactive) | – |
| CCOc1ccc(NC(=O)C(=O)C(C(=O)c2ccc3ccccc3c2)C2OC(=O)c3ccccc32)cc1 (configuration not stated) | 20.2 µM (inactive) | 19.1 µM (inactive) | 15.7 µM (inactive) | 17.5 µM (inactive) | 19.5 µM (inactive) | 34.4 µM (inactive) | 20.5 µM (inactive) | 18.5 µM (inactive) | 4.57 µM (inactive) | 5.09 µM (inactive) | 11.8 µM (inactive) | 16.2 µM (inactive) | 30.9 µM (inactive) | – | 13.6 µM (inactive) | 15.5 µM (inactive) | 50.9 µM (inactive) | 15.6 µM (inactive) | 17 µM (inactive) | – |

Reference: ChEMBL document CHEMBL1201862, “PubChem BioAssay data set” (2004)
